Tests used:
[1] = Clearance in Sprague-Dawley rat at 3 mg/kg, po by LC-MS/MS analysis; type: ADME, organism-based; settings: in vivo
[2] = Intrinsic clearance in rat liver microsomes; type: ADME; settings: read-out: CLH
[3] = Half life in monkey liver microsomes; type: ADME, Macaca mulatta; settings: rhesus monkey
[4] = Intrinsic clearance in human liver microsomes; type: ADME; settings: read-out: CLH
[5] = Half life in human liver microsomes; type: ADME
[6] = Half life in Sprague-Dawley rat at 3 mg/kg, po by LC-MS/MS analysis; type: ADME, organism-based; settings: in vivo
[7] = Half life in rat liver microsomes; type: ADME
[8] = Cmax in Sprague-Dawley rat at 3 mg/kg, po by LC-MS/MS analysis; type: ADME, organism-based; set-up: dose 3 mg/kg, route oral; settings: in vivo
[9] = Apparent volume of distribution in Sprague-Dawley rat at 3 mg/kg, po by LC-MS/MS analysis; type: ADME, organism-based; settings: in vivo, read-out: Vz/F
[10] = biological target: T1, Solute carrier family 22 member 12 (Homo sapiens, UniProt Q96S37); assay: Inhibition of human URAT1 expressed in HEK293 cells assessed as [14C]uric acid uptake after 12 mins by scintillation counter; type: cell-based
T1 sequence (Q96S37 whole entry): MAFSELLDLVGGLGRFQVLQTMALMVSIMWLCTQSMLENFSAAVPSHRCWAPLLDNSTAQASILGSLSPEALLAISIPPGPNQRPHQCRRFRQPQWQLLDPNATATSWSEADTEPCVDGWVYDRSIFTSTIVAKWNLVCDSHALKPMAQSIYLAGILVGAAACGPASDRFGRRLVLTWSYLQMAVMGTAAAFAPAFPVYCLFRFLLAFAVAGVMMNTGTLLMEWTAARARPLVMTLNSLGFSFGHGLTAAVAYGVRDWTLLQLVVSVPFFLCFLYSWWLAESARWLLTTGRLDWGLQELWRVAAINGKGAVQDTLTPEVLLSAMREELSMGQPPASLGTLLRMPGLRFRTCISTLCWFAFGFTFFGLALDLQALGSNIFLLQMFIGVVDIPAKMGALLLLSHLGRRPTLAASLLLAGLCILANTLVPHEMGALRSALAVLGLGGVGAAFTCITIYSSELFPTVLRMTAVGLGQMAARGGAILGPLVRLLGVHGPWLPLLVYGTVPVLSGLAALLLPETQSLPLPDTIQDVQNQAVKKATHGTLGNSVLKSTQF

[11] = Intrinsic clearance in monkey liver microsomes; type: ADME, Macaca mulatta; settings: rhesus monkey, read-out: CLH
[12] = Tmax in Sprague-Dawley rat at 3 mg/kg, po by LC-MS/MS analysis; type: ADME, organism-based; settings: in vivo
[13] = AUC (0 to t) in Sprague-Dawley rat at 3 mg/kg, po by LC-MS/MS analysis; type: ADME, organism-based; settings: in vivo
[14] = Plasma protein binding in human; type: ADME, cell-free; settings: read-out: PPB (converted)
[15] = Mean residence time in Sprague-Dawley rat at 3 mg/kg, po by LC-MS/MS analysis; type: ADME, organism-based; settings: in vivo
[16] = Cmax in cynomolgus monkey at 10 mg/kg, po by LC-MS/MS analysis; type: ADME, organism-based, Macaca fascicularis; set-up: dose 10 mg/kg, route oral; settings: in vivo
[17] = Cmax in beagle dog at 5 mg/kg, po by LC-MS/MS analysis; type: ADME, organism-based, Canis lupus familiaris; set-up: dose 5 mg/kg, route oral; settings: in vivo
[18] = Cmax in Sprague-Dawley rat at 3 mg/kg, iv by LC-MS/MS analysis; type: ADME, organism-based; set-up: dose 3 mg/kg, route intravenous; settings: in vivo
[19] = Cmax in beagle dog at 1 mg/kg, iv by LC-MS/MS analysis; type: ADME, organism-based, Canis lupus familiaris; set-up: dose 1 mg/kg, route intravenous; settings: in vivo
Canis familiaris [20] = assay: Apparent volume of distribution in beagle dog at 5 mg/kg, po by LC-MS/MS analysis; type: ADME, organism-based, Canis lupus familiaris; settings: in vivo
[21] = Toxicity in Sprague-Dawley rat administered once daily for 1 week; type: organism-based; settings: in vivo
[22] = Clearance in cynomolgus monkey at 10 mg/kg, po by LC-MS/MS analysis; type: ADME, organism-based, Macaca fascicularis; settings: in vivo
Canis familiaris [23] = assay: AUC (0 to t) in beagle dog at 1 mg/kg, iv by LC-MS/MS analysis; type: ADME, organism-based, Canis lupus familiaris; settings: in vivo
Rattus norvegicus [24] = assay: Apparent volume of distribution in Sprague-Dawley rat at 3 mg/kg, iv by LC-MS/MS analysis; type: ADME, organism-based; settings: in vivo
[25] = Bioavailability in beagle dog at 1 mg/kg, iv by LC-MS/MS analysis; type: ADME, organism-based, Canis lupus familiaris; settings: in vivo
Canis familiaris [26] = assay: AUC (0 to t) in beagle dog at 5 mg/kg, po by LC-MS/MS analysis; type: ADME, organism-based, Canis lupus familiaris; settings: in vivo
Canis familiaris [27] = assay: Apparent volume of distribution in beagle dog at 1 mg/kg, iv by LC-MS/MS analysis; type: ADME, organism-based, Canis lupus familiaris; settings: in vivo
[28] = AUC (0 to t) in Sprague-Dawley rat at 3 mg/kg, iv by LC-MS/MS analysis; type: ADME, organism-based; settings: in vivo
[29] = Mean residence time in Sprague-Dawley rat at 3 mg/kg, iv by LC-MS/MS analysis; type: ADME, organism-based; settings: in vivo
[30] = Bioavailability in Sprague-Dawley rat at 3 mg/kg, iv by LC-MS/MS analysis; type: ADME, organism-based; settings: in vivo
[31] = Half life in Sprague-Dawley rat at 3 mg/kg, iv by LC-MS/MS analysis; type: ADME, organism-based; settings: in vivo
[32] = Half life in cynomolgus monkey at 10 mg/kg, po by LC-MS/MS analysis; type: ADME, organism-based, Macaca fascicularis; settings: in vivo
Canis familiaris [33] = assay: Half life in beagle dog at 5 mg/kg, po by LC-MS/MS analysis; type: ADME, organism-based, Canis lupus familiaris; settings: in vivo
[34] = Apparent volume of distribution in cynomolgus monkey at 10 mg/kg, po by LC-MS/MS analysis; type: ADME, organism-based, Macaca fascicularis; settings: in vivo, read-out: Vz/F
[35] = Clearance in Sprague-Dawley rat at 3 mg/kg, iv by LC-MS/MS analysis; type: ADME, organism-based; settings: in vivo
[36] = Tmax in beagle dog at 5 mg/kg, po by LC-MS/MS analysis; type: ADME, organism-based, Canis lupus familiaris; settings: in vivo
[37] = Mean residence time in cynomolgus monkey at 10 mg/kg, po by LC-MS/MS analysis; type: ADME, organism-based, Macaca fascicularis; settings: in vivo
[38] = Tmax in cynomolgus monkey at 10 mg/kg, po by LC-MS/MS analysis; type: ADME, organism-based, Macaca fascicularis; settings: in vivo
[39] = AUC (0 to t) in cynomolgus monkey at 10 mg/kg, po by LC-MS/MS analysis; type: ADME, organism-based, Macaca fascicularis; settings: in vivo
[40] = Mean residence time in beagle dog at 5 mg/kg, po by LC-MS/MS analysis; type: ADME, organism-based, Canis lupus familiaris; settings: in vivo
Rattus norvegicus [41] = assay: Toxicity in Sprague-Dawley rat assessed as no adverse effect at 100 mg/kg once daily for 1 week; type: organism-based; settings: in vivo, 168 h
Cynomolgus monkey = assay: Decrease in uric acid level in cynomolgus monkey serum administered as single oral dose measured after 24 hrs; type: functional, organism-based; settings: Macaca fascicularis
Canis familiaris [42] = assay: Half life in beagle dog at 1 mg/kg, iv by LC-MS/MS analysis; type: ADME, organism-based, Canis lupus familiaris; settings: in vivo
[43] = Mean residence time in beagle dog at 1 mg/kg, iv by LC-MS/MS analysis; type: ADME, organism-based, Canis lupus familiaris; settings: in vivo

O=C(O)C1(Sc2ccnc3ccccc23)CCC1
CL/F [1]: 2.5 mL/min/kg
microsomal CLint [2]: 2.1 µL/min/mg
half-life [3]: 4.82 h
microsomal CLint [4]: 7.2 µL/min/mg
half-life [5]: 2.02 h
half-life [6]: 2.8 h
half-life [7]: 6.88 h
Cmax [8]: 8800 ng/mL
Vd/F [9]: 0.69 L/kg
IC50 [10]: 448 nM
microsomal CLint [11]: 3 µL/min/mg
Tmax [12]: 0.5 h
AUC(0-t) [13]: 20.7 µg·h/mL
fraction unbound [14]: 0.002
MRT [15]: 3.2 h

CNC(=O)COc1ccc2nccc(SC3(C(=O)O)CCC3)c2c1
IC50 [10]: > 10000 nM

O=C(O)C1(Sc2ccnc3ccncc23)CCC1
IC50 [10]: 1930 nM

O=C(O)C1(Oc2ncnc3ccccc23)CCC1
IC50 [10]: > 10000 nM

O=C(O)C1(Sc2ccnc3ccc(CO)cc23)CCC1
IC50 [10]: 1260 nM

O=C(O)C1(Sc2ccnc3ccc(O)cc23)CCC1
IC50 [10]: > 10000 nM

O=C1COc2cccc(SC3(C(=O)O)CCC3)c2N1
IC50 [10]: > 10000 nM

O=C(O)C1(Sc2nccc3ncccc23)CCC1
IC50 [10]: > 10000 nM

O=C(Nc1ccc2nccc(SC3(C(=O)O)CCC3)c2c1)C1CC1
IC50 [10]: > 10000 nM

O=C(O)C1(Sc2ccnc3ccc(Br)cc23)CCC1 [SHR-4640]
CL/F [1]: 0.39 mL/min/kg
Cmax [16]: 46900 ng/mL
Cmax [17]: 7700 ng/mL
Cmax [18]: 99700 ng/mL
Cmax [19]: 4700 ng/mL
microsomal CLint [2]: 4.4 µL/min/mg
half-life [3]: 5.8 h
microsomal CLint [4]: 1.1 µL/min/mg
Vz/F (Canis familiaris [20]): 2.1 L/kg
MTD at 168 h [21]: 300 mg/kg
CL/F [22]: 1.3 mL/min/kg
AUCt (Canis familiaris [23]): 4.4 µg·h/mL
Vz/F (Rattus norvegicus [24]): 0.12 L/kg
bioavailability [25]: 86.1%
AUCt (Canis familiaris [26]): 18.6 µg·h/mL
Vz/F (Canis familiaris [27]): 1.6 L/kg
AUC(0-t) [28]: 193 µg·h/mL
MRT [29]: 6 h
bioavailability [30]: 74.8%
half-life [5]: 13.6 h
half-life [6]: 4.4 h
half-life [31]: 4.9 h
half-life [7]: 3.28 h
Cmax [8]: 20500 ng/mL
half-life [32]: 7.3 h
t1/2 (Canis familiaris [33]): 5.2 h
Vd/F [9]: 0.14 L/kg
IC50 [10]: 33.7 nM
Vd/F [34]: 0.8 L/kg
microsomal CLint [11]: 2.6 µL/min/mg
clearance [35]: 0.29 mL/min/kg
Tmax [36]: 0.5 h
Tmax [12]: 1.2 h
AUC(0-t) [13]: 146 µg·h/mL
MRT [37]: 6.3 h
Tmax [38]: 0.5 h
fraction unbound [14]: 0.013
AUC(0-t) [39]: 132 µg·h/mL
MRT [40]: 5 h
Activity (Rattus norvegicus [41]): Non-toxic
MRT [15]: 6.8 h
inhibition (Cynomolgus monkey): Dose-dependent effect
t1/2 (Canis familiaris [42]): 4.7 h
MRT [43]: 3.2 h

O=C(O)C1(Sc2ccnc3ccc(-c4ccccc4F)cc23)CCC1
IC50 [10]: 333 nM
